# Data taken from patent US20150250769A1, “METHODS AND COMPOSITIONS FOR INHIBITING RHO/MRTF-MEDIATED DISEASES AND CONDITIONS” (THE REGENTS OF THE UNIVERSITY OF MICHIGAN, priority 2014, published 2015).
# Entries after “also recorded” stand apart in the source; their conditions may differ.
# Assays:
# [1] = tested on: peritoneal fibrosis; conditions: Sakai et al. 2013; cited from earlier work
# [2] = tested on: Rho (MRTF/SRF-regulated gene transcription, SRE-Luciferase); conditions: Evelyn et al. 2007; cited from earlier work
# [3] = Acute cellular toxicity; format: cell-based; conditions: FIG. 2B; compared with CCG-1423
# [4] = tested on: COL1A2 and ACTA2 (αSMA) mRNA; test: LPA-induced COL1A2 and ACTA2 mRNA in NIH-3T3 cells; format: cell-based
# Text: (§1) A & B) CCG-203971 inhibits LPA-induced COL1A2 and ACTA2 (αSMA) mRNA in NIH-3T3 cells.
# [5] = In vivo tolerability (general statement); conditions: compared with CCG-1423
# [6] = In vivo pharmacokinetics
# [7] = tested on: cellular migration; test: Cellular migration; format: cell-based; conditions: FIG. 5
# [8] = tested on: skin fibrosis; test: Bleomycin skin injury (dermal fibrosis) model; format: in vivo; conditions: mouse; 100 mg/kg
# Text: Mice are weighed once prior to study start. Dermal fibrosis is induced in Groups 2-5 by daily intradermal injections of bleomycin over 14 days. Group 1 will receive vehicle 1 (PBS) over the same days. Daily therapeutic dosing with either vehicle 2 or CCG-58150 by oral gavage coincide with the intradermal injection study days. Mice are anesthetized using isoflurane during intradermal injections. The back is shaved and the injection site ( 1 cm2) cleaned with three alternating passes of chlorhexidine and warm, sterile saline or water. The periphery of the injection site is circled using a […] marker as a visual aid. Bleomycin is dissolved in sterile PBS at a concentration of 1 mg/ml, sterile filtered, and frozen in aliquots appropriately sized for the daily injections prior to the start of the dosing period. 100 μl of bleomycin or PBS (Vehicle 1) is administered to anesthetized mice by intradermal injection using a 0.5 cc TB syringe with a 27 G needle. Following bleomycin or vehicle administration, test substance (CCG-58150) or vehicle 2 (20% DMSO/30% PEG/50% PBS) is administered by oral gavage at 10 μL/gram of body weight. […] Images are collected on an Evos microscope and skin thickness and intensity of fibrosis of two distinct images from each animal is analyzed using ImageJ. […]
# [9] = tested on: human dermal fibroblasts; test: Myofibroblast differentiation / αSMA staining in dermal fibroblasts (TGFβ-induced normal, SSc); format: cell-based; conditions: for myofibroblast differentiation / phenotype (αSMA): in vitro, TGFβ-stimulated normal human dermal fibroblasts and SSc fibroblasts; for potency to reduce alpha-SMA staining, human primary dermal fibroblasts: 72-hour assay
# Method: B-D) Human dermal fibroblasts were treated with TGFβ (10 ng/ml) for 3 days with various concentrations of CCG-58150.
# as §1
# [10] = tested on: Rho (MRTF/SRF-regulated gene transcription, SRE-Luciferase); test: SRE-Luciferase reporter, Rho inhibition; format: cell-based
# Method: In the course of these studies, the rho transcription reporter method that uses the rho-specific SRE-Luciferase was developed. This transcriptional reporter method, described in detail therein, was used for screening a small chemical library for possible rho inhibitors (Evelyn et al., Mol Canc. Ther. 6:2249-60, 2007; herein incorporated by reference in its entirety). Additional inhibitors were identified as described below.
# CCG-1423 was a cellular IC50 of ˜1 uM to inhibit SRE-Luciferase expression (Evelyn, C. R., Wade, S. M., Wang, Q., Wu, M., Iniguez-Lluhi, J. A., Merajver, S. D., and Neubig, R. R. 2007. CCG-1423: a small-molecule inhibitor of RhoA transcriptional signaling. Mol Cancer Ther 6:2249-2260). It has been used in many labs as a tool compound for blocking MRTF/SRF-regulated gene transcription (Sandbo et al., et al., 2011. Am J Physiol Lung Cell Mol Physiol 301:L656-666; Sandbo, et al., 2009. Am J Respir Cell Mol Biol 41:332-338; Evelyn, et al., 2007. Mol Cancer Ther 6:2249-2260; Sandbo et al., 2013. J Biol Chem 288:15466-15473; Prencipe et al., 2013. Prostate 73:743-753; Sakai et al., 2013. FASEB J 27:1830-1846; Buller et al., 2012. Glia 60:1906-1914; Chong et al., 2012. PLoS One 7:e40966; Jin et al., 2011. J Clin Invest 121:918-929; Mae et al., 2010. Biochem Biophys Res Commun 393:877-882; Evelyn et al., 2010. Bioorg Med Chem Lett 20:665-672; Lu et al., 2009. Curr Med Chem 16:1355-1365). CCG-1423 acts by preventing nuclear accumulation of MRTF (Evelyn et al, supra; Jin et al., supra).
# [11] = tested on: CTGF mRNA; test: CTGF mRNA by qRT-PCR in LPA-stimulated NIH3T3 cells; format: cell-based
# [12] = Preliminary tolerability study in normal mice; format: in vivo; conditions: 10 mg/kg i.p. daily for 2-weeks
# Method: The experiments shown in FIG. 4 are repeated CCG-58150 and derivatives thereof. A range of doses (0.1, 1, and 10 mg/kg) is used to increase the likelihood of finding a well-tolerated dose that is effective.
# [13] = Stability in liver microsomes; format: in vitro ADME
Structure (SMILES),IC50 [10] [µM],further results
CC(ONC(=O)c1cc(C(F)(F)F)cc(C(F)(F)F)c1)C(=O)Nc1ccc(Cl)cc1 (stereo not shown) [CCG-1423],,activity in peritoneal fibrosis model [1]: in vivo activity; reduction of SRF-mediated transcription versus ROCK inhibitors [2]: more effective than ROCK inhibitors
O=C(Nc1ccc(Cl)cc1)C1CCCN(C(=O)c2cccc(-c3ccco3)c2)C1 (stereo not shown) [CCG-203971],,"acute cellular toxicity [3]: less acute cellular toxicity; also recorded: reduced acute cellular toxicity; LPA-induced COL1A2 and ACTA2 (αSMA) mRNA [4]: inhibits; tolerability in vivo [5]: much better tolerated in vivo; hepatic clearance ([6]; in vivo): rapid hepatic clearance; pharmacokinetics (overall) ([6]; in vivo): poor pharmacokinetics; oral absorption ([6]; in vivo, po): low oral absorption; cellular migration [7]: inhibition of cellular migration; fibrosis in bleomycin skin injury model [8]: prevented fibrosis; also recorded: very strongly significant effect; also recorded: prevents skin fibrosis; potency relative to perfenidone ([9]; FIG. 4C): 100 ×; myofibroblast differentiation / phenotype (αSMA) [9]: reverses the myofibroblast phenotype; also recorded: Suppression of myofibroblast activation"
Cc1cccc(-c2nnc(SCCC(=O)O)o2)c1 [compound 58146],,"potency in SRE-luciferase ([10]; FIG. 2C, listed as CCG-58146): nM IC50; also recorded: markedly higher potency; cellular migration [7]: inhibition of cellular migration"
O=C(O)CCSc1nnc(-c2ccc(Cl)cc2Cl)o1 [compound 58150],0.004,"potency in a 24-hour assay in NIH 3T3 cells ([11]; 24-hour assay): nM potency; IC50 ([11]; Mus musculus, FIG. 3, NIH3T3 cells stimulated with LPA, read-out: IC50, inhibition of expression of endogenous CTGF mRNA): 0.001 µM; tolerability [12]: tolerated; blood levels 24 hours after a single oral dose relative to in vitro IC50 ([6]; 24 hours, single oral dose): over 10 fold; pharmacokinetics (overall) ([6]; in vivo): very good in vivo pharmacokinetics; cellular migration [7]: inhibition of cellular migration; stability in liver microsomes [13]: highly favorable stability; potency to reduce alpha-SMA staining, human primary dermal fibroblasts ([9]; listed as CCG-58150): fM-pM; potency to reduce alpha-SMA staining, human primary dermal fibroblasts ([9]; listed as CCG-518150): fM-pM potency; myofibroblast differentiation / phenotype (αSMA) [9]: αSMA inhibition; myofibroblast differentiation / phenotype (αSMA) ([9]; listed as CCG-58150): blocks myofibroblast differentiation at pM concentrations; maximum suppression, inhibition of % αSMA positive cells ([9]; maximum effect): 60%"
COC(=O)CSc1nnc(-c2ccc(C)cc2)o1 [compound 105557],5.2,
O=C(O)CCSc1nc2ccccc2n1Cc1ccccc1 [compound 111085],> 100,
Cc1ccc(-c2nnc(SCC(=O)O)o2)cc1 [compound 114898],6.7,
O=C(O)CCSc1nnc(-c2cccc(Br)c2)o1 [compound 123853],6.4,
O=C(O)CCSc1nnc(-c2cccnc2)o1 [compound 123869],87,
Cc1cccc(-c2nnc(SCC(N)=O)o2)c1 [compound 211912],> 100,
CCCN(CCC)C(=O)CSc1nnc(-c2cccc(C)c2)o1 [compound 211913],> 100,
O=C(O)CSc1nnc(-c2ccc(Cl)cc2Cl)o1 [compound 215027],> 100,
CC(C)(C)NC(=O)CSc1nnc(-c2ccc(Cl)cc2Cl)o1 [compound 215029],> 100,
COc1cc(C)ccc1-c1nnc(SCCC(=O)O)o1 [compound 215201],0.023,
O=C(O)CCCc1nnc(-c2ccc(Cl)cc2Cl)o1 [compound 222620],> 100,
COc1cc(Cl)cc(Cl)c1-c1nnc(SCCC(=O)O)o1 [compound 222687],10,
O=C(O)CCSc1nnc(-c2ccc(F)cc2Cl)o1 [compound 232002],0.025,
"O=C(O)CCCCSc1nnc(-c2ccc(Cl)cc2Cl)o1 [compound 232503, 5-((5-(2,4-dichlorophenyl)-1,3,4-oxadiazol-2-yl)thio)pentanoic acid]",0.003,

# Second part, led by results:
IC50 [10] [µM],Structure (SMILES),further results
> 100,c1ccc(-c2nnc(SCCC3OCCCO3)o2)cc1 [compound 20321],
> 100,COc1ccc(-c2nnc(SCCC(=O)O)n2C)cc1 [compound 107983],
43,Cc1cccc(-c2nnc(SCC(=O)O)o2)c1 [compound 123860],
> 100,O=C(O)CCSc1nnc(-c2ccncc2)o1 [compound 123867],
> 100,Cc1occc1-c1nnc(SCCC(=O)O)o1 [compound 123873],
> 100,O=C(O)CCSc1nc(-c2ccccc2)cc(=O)[nH]1 [compound 211914],
> 100,CCOC(=O)CSc1nnc(-c2ccc(Cl)cc2Cl)o1 [compound 215028],
> 100,COc1ccc(-c2nnc(SCCC(=O)O)[nH]2)cc1 [compound 215104],
> 100,COCCNC(=O)CCSc1nnc(-c2ccc(Cl)cc2Cl)o1 [compound 215160],
24,O=C(O)CCOc1nnc(-c2ccc(Cl)cc2Cl)s1 [compound 215240],
0.0086,COc1c(Cl)ccc(-c2nnc(SCCC(=O)O)o2)c1Cl [compound 222623],
